Experiments:
Cyclooxygenase = Cyclooxygenase (Homo sapiens, UniProt P35354+P23219)
Description: Inhibitory concentration against prostaglandin G/H synthase

[1] = molecular target: T1, Polyunsaturated fatty acid 5-lipoxygenase (Homo sapiens, UniProt P09917); experiment: Inhibitory concentration against arachidonate 5-lipoxygenase
T1 sequence (P09917 whole entry): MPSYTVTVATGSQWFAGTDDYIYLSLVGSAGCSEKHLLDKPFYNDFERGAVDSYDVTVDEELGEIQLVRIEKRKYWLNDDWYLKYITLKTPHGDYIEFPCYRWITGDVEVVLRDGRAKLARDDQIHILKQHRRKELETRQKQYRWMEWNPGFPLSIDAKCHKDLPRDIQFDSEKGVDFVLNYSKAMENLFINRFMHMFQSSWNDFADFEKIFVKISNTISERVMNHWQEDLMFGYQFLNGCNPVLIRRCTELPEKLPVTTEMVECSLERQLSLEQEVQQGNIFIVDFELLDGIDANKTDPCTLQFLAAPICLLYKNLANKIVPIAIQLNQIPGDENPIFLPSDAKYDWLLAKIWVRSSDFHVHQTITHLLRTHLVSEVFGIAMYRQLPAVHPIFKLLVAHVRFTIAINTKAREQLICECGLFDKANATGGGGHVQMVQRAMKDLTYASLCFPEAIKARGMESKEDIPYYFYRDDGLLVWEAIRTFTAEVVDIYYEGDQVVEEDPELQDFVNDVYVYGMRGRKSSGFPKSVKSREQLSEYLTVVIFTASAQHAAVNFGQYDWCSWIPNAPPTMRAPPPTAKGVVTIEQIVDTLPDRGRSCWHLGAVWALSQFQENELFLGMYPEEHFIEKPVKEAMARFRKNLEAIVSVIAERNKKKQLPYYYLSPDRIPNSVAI

[2] = molecular target: T1, Polyunsaturated fatty acid 5-lipoxygenase
[3] = molecular target: T2, Peroxisome proliferator-activated receptor alpha (Homo sapiens, UniProt Q07869)
T2 sequence (Q07869 whole entry): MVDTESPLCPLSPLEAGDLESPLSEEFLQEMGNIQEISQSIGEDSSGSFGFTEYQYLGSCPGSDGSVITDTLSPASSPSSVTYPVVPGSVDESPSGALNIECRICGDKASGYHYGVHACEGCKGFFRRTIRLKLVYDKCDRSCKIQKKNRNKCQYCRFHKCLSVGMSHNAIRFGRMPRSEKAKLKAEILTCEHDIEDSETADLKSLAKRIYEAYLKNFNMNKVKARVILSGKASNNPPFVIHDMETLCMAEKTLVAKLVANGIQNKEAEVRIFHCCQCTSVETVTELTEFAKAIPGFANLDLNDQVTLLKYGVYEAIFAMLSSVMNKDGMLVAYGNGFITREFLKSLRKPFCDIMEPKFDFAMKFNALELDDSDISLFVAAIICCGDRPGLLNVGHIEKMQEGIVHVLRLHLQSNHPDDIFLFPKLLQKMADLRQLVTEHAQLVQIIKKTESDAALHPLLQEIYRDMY
Description: Binding affinity towards peroxisome proliferator activated receptor alpha

[4] = molecular target: T3, Peroxisome proliferator-activated receptor gamma (Homo sapiens, UniProt P37231)
T3 sequence (P37231 whole entry): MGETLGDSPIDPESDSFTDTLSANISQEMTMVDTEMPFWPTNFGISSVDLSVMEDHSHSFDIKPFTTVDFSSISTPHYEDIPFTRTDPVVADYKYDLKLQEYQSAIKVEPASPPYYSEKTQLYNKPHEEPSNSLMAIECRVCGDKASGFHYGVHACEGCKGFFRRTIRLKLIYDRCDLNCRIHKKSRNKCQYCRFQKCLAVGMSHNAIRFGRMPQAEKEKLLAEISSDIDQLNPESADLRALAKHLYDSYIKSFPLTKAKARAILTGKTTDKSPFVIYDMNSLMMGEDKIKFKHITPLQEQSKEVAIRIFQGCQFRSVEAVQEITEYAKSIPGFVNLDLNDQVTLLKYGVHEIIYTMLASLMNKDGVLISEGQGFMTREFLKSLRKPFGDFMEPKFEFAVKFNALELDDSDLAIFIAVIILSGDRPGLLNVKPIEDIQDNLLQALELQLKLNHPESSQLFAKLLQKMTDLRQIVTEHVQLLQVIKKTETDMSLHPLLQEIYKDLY
Description: Binding affinity towards peroxisome proliferator activated receptor gamma

[5] = molecular target: T4, 5-hydroxytryptamine receptor 1A (Homo sapiens, UniProt P08908)
T4 sequence (P08908 whole entry): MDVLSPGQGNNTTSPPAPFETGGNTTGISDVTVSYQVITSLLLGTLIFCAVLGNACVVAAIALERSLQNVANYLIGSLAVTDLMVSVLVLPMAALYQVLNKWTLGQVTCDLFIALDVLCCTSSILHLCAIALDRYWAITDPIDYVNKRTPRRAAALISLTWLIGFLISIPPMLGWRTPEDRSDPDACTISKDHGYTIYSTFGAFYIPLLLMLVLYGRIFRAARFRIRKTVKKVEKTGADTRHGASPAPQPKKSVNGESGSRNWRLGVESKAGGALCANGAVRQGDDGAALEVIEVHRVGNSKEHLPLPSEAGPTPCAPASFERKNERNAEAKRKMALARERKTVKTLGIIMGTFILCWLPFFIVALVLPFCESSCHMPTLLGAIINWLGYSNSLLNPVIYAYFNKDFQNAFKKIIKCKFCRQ
Description: Inhibition constant against 5-hydroxytryptamine 1A receptor

[6] = molecular target: T5, Sodium-dependent serotonin transporter (Homo sapiens, UniProt P31645)
Description: Inhibitory concentration against serotonin transporter

[7] = molecular target: T5, Sodium-dependent serotonin transporter; remark: listed apart in the source
Description: Inhibition constant against serotonin transporter

[8] = molecular target: T6, Peroxisome proliferator-activated receptor delta (Homo sapiens, UniProt Q03181)
T6 sequence (Q03181 whole entry): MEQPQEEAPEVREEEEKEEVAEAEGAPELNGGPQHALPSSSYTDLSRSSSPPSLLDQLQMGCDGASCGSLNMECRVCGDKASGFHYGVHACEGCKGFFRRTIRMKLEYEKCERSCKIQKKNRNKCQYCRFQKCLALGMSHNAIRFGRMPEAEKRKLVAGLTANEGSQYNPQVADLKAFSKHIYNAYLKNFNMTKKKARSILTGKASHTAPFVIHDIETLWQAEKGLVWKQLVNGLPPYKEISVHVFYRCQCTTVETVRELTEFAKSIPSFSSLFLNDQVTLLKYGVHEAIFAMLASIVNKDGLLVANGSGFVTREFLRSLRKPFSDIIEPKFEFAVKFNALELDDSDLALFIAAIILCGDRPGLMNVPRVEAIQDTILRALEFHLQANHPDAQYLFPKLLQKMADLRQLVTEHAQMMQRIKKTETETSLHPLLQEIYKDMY
Description: Binding affinity towards peroxisome proliferator activated receptor delta

[9] = molecular target: T7, Adrenergic receptor alpha-1 (Homo sapiens, UniProt P35348+P25100+P35368); experiment: Inhibition constant against alpha adrenergic receptor; assay type: protein assay
T7 sequence (P35348 whole entry): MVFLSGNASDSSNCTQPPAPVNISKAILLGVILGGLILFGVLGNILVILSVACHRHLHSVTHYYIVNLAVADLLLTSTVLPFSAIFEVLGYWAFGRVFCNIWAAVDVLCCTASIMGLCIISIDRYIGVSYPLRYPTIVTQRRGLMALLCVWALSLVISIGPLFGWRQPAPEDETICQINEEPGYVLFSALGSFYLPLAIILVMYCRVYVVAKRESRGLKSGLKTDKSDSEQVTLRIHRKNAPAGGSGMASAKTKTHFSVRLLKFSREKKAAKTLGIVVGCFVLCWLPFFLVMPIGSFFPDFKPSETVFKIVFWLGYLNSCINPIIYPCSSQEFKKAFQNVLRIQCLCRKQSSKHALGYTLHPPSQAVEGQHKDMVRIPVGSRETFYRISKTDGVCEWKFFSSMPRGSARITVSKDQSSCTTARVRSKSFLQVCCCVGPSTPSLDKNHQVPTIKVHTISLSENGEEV
T7 sequence (P25100 whole entry): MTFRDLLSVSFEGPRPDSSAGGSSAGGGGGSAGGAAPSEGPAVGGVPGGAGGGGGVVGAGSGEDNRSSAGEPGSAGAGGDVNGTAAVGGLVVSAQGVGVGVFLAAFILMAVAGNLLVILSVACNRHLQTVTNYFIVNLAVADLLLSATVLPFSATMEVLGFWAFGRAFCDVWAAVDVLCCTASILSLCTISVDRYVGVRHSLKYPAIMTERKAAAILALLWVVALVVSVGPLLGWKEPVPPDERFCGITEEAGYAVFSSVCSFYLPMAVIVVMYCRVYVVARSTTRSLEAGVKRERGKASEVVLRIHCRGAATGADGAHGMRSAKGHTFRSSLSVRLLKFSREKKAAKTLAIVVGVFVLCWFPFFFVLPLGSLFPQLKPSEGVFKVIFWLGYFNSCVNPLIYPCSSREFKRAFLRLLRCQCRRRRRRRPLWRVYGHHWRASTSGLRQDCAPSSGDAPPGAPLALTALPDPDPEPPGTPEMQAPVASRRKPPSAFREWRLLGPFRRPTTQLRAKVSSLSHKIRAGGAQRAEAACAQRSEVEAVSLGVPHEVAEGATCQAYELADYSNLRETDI
T7 sequence (P35368 whole entry): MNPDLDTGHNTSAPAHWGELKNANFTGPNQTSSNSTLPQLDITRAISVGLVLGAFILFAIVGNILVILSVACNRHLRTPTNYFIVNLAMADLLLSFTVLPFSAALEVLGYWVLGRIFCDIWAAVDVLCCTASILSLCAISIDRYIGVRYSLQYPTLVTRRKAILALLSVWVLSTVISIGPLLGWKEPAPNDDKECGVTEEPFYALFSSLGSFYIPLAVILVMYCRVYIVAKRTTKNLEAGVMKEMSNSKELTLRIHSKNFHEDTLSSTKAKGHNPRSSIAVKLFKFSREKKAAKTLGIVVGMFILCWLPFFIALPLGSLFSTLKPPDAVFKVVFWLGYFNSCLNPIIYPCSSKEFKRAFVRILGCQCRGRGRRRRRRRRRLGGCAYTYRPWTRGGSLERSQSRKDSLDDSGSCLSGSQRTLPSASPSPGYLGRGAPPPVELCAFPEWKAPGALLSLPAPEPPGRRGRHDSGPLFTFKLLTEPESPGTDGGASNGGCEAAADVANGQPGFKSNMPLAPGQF

[10] = molecular target: T7, Adrenergic receptor alpha-1
Description: Inhibitory concentration against alpha adrenergic receptor

[11] = molecular target: T5, Sodium-dependent serotonin transporter; experiment: Negative logarithm causing 50% receptor occupancy against serotonin transporter
Substance-K receptor = molecular target: T8, Substance-K receptor (Homo sapiens, UniProt P21452)
T8 sequence (P21452 whole entry): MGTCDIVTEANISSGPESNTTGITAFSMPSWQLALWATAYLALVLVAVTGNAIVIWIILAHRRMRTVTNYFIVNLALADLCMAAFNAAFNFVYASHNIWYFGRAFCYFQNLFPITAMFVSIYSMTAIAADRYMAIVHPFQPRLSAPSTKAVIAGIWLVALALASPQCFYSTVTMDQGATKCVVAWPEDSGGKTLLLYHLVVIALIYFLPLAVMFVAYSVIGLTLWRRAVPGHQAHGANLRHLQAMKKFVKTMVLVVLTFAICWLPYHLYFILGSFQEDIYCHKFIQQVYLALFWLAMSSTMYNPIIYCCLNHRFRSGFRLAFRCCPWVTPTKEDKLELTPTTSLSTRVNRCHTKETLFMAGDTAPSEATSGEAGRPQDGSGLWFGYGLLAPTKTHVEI
Description: Inhibitory concentration against tachykinin receptor 2

T5 sequence (P31645 whole entry): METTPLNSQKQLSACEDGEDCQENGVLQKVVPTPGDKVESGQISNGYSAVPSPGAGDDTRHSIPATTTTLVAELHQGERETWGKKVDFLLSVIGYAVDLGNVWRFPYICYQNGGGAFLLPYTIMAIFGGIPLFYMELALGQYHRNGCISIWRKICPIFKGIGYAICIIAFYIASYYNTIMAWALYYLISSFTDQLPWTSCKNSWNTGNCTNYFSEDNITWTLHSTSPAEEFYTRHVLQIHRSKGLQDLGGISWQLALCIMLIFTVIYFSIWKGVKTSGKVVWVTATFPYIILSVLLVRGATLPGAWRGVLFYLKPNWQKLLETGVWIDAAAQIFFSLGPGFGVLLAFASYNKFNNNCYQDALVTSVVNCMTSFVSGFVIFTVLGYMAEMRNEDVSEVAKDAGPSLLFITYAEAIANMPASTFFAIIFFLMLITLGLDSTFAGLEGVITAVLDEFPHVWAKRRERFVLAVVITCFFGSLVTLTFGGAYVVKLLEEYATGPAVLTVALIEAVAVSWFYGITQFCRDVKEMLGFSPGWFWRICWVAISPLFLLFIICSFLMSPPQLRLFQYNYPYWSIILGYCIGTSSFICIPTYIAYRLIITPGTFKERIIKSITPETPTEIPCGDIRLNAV

With `CC(C)(C)c1cc(C=C2SC(N)=NC2=O)cc(C(C)(C)C)c1O` the IC50 (Cyclooxygenase) was 390 nM and the IC50 [1] was 770 nM.

Work on `Cc1c(O)c(C)c2sc(NCc3ccc(S(N)(=O)=O)cc3)nc2c1C` yielded an IC50 [2] of 230 nM.

`CCOC(Cc1ccc(OCCN(C)C2=Nc3ccccc3Sc3ccccc32)cc1)C(=O)O` (stereo not given) showed a Kd [3] of 7500 nM and a Kd [4] of 9800 nM.

With `CCN(CC)C(=O)[C@@]1(c2ccccc2)CC1CNCC(O)COc1cccc2[nH]ccc12` (stereo not given in full) the Ki [5] was 45 nM and the IC50 [6] was 120 nM.

For `CN(C)CC(O)COc1cccc2[nH]ccc12` (stereo not given), the Ki [5] was 24 nM and the Ki [7] was greater than 7000 nM.

`CN1[C@@H]2CC[C@H]1C[C@@H](OC(=O)c1c[nH]c3ccccc13)C2` [TROPISETRON] showed a Ki [5] of 5.3 nM.

In the case of `COc1cccc2c1CCCC2CN(C)CCc1cccc(F)c1` (stereo not given), the Ki [5] is reported as 3.2 nM and the IC50 [6] is reported as 160 nM.

`CCO[C@@H](Cc1ccc(OCC=C(c2ccccc2)c2ccccc2)cc1)C(=O)O` gave a Kd [3] of 6400 nM, a Kd [4] of 2700 nM and a Kd [8] of 5700 nM.

`COc1ccc(-n2nc(C#CC(C)N(O)C(C)=O)cc2-c2ccc(Cl)cc2)cc1` (stereo not given) was tested, and the IC50 (Cyclooxygenase) was 30 nM and the IC50 [1] was 110 nM.

`C1=C(c2c[nH]c3ncccc23)CCN(CCOc2cccc3[nH]ccc23)C1` showed a Ki [9] of 1 nM and a Ki [7] of 1.5 nM.

In the case of `O=C1Cc2cc(CCN3CCN(c4nsc5ccccc45)CC3)c(Cl)cc2N1` [ZIPRASIDONE], the IC50 [10] is reported as 11 nM.

With `O=C1COc2ccc(OCCNCCCOc3cccc4[nH]ccc34)cc2N1` the Ki [11] was 79.4 nM.

Molecule `COc1cccc2c1CCCC2CN(C)CCc1ccc2c(c1)OCO2` (stereo not given) has a Ki [5] of 6.7 nM and an IC50 [6] of 21 nM.

`CCO[C@@H](Cc1ccc(OCCn2c3ccccc3c3ccccc32)cc1)C(=O)O` gave a Kd [3] of 360 nM, a Kd [4] of 170 nM and a Kd [8] of 3000 nM.

Work on `COc1ccccc1CN[C@H]1C2CCN(CC2)[C@@H]1C(c1ccccc1)c1ccccc1` yielded an IC50 (Substance-K receptor) greater than 10000 nM.

`CC(COc1ccc2c(c1)NC(=O)CO2)NCC(O)COc1cccc2[nH]ccc12` (stereo not given) gave a Ki [11] of 50.1 nM.

For `O=C(CN1CCN(Cc2ccc(Cl)cc2)CC1)N1CCc2ccccc21`, the IC50 [10] was 88 nM.

Molecule `CC(C)(C)c1cc(C(=O)c2cccs2)cc(C(C)(C)C)c1O` [PRIFELONE] has an IC50 (Cyclooxygenase) of 500 nM and an IC50 [1] of 20000 nM.

In the case of `CN(C)C(=O)Oc1ccc2c(c1)C=CCN(C)[C@@H]2CCOc1ccc([N+](=O)[O-])cc1`, the IC50 [6] is reported as 6 nM.

`CCO[C@@H](Cc1ccc(OCC=C(c2ccc(-c3ccccc3)cc2)c2ccc(-c3ccccc3)cc2)cc1)C(=O)O` gave a Kd [3] of 1100 nM, a Kd [4] of 300 nM and a Kd [8] of 500 nM.
